Results from PMC7181660, “A novel specific PERK activator reduces toxicity and extends survival in Huntington's disease models” (Scientific Reports, 2020).
Read-outs that look alike come from different tables or passages of the source.

What was measured:
Assay in all cases: biochemical
Assay type in all cases: biochemical
[1] = target: panel of 391 kinases (Homo sapiens, UniProt O15530); details: PDK1/PDPK1, MK-28 1 µM, ATP 1 µM
[2] = target: panel of 391 kinases (Homo sapiens, UniProt O60674); details: JAK2, MK-28 1 µM, ATP 1 µM
[3] = target: panel of 391 kinases (Homo sapiens, UniProt O75385); details: ULK1, MK-28 1 µM, ATP 1 µM
[4] = target: panel of 391 kinases (Homo sapiens, UniProt P00519); details: ABL1, MK-28 1 µM, ATP 1 µM
[5] = target: panel of 391 kinases (Homo sapiens, UniProt P17252); details: PKCa, MK-28 1 µM, ATP 1 µM
[6] = target: panel of 391 kinases (Homo sapiens, UniProt P42680); details: TEC, MK-28 1 µM, ATP 1 µM
[7] = target: panel of 391 kinases (Homo sapiens, UniProt P43403); details: ZAP70, MK-28 1 µM, ATP 1 µM
[8] = target: panel of 391 kinases (Homo sapiens, UniProt P53350); details: PLK1, MK-28 1 µM, ATP 1 µM
[9] = target: panel of 391 kinases (Homo sapiens, UniProt P54646); details: compound at 1 µM, single dose in duplicates, 1 µM ATP; for remaining activity at 1 µM: read-out: % Enzyme Activity (relative to DMSO controls)
[10] = target: panel of 391 kinases (Homo sapiens, UniProt Q04771); details: ALK2/ACVR1, MK-28 1 µM, ATP 1 µM
[11] = target: panel of 391 kinases (Homo sapiens, UniProt Q08345); details: DDR1, MK-28 1 µM, ATP 1 µM
[12] = target: panel of 391 kinases (Homo sapiens, UniProt Q13554); details: CAMK2b, MK-28 1 µM, ATP 1 µM
[13] = target: panel of 391 kinases (Homo sapiens, UniProt Q16566); details: CAMK4, MK-28 1 µM, ATP 1 µM
[14] = target: panel of 391 kinases (Homo sapiens, UniProt Q32MK0); details: MYLK3, MK-28 1 µM, ATP 1 µM
[15] = target: panel of 391 kinases (Homo sapiens, UniProt Q6P3R8); details: NEK5, MK-28 1 µM, ATP 1 µM
[16] = target: panel of 391 kinases (Homo sapiens, UniProt Q8N5S9); details: CAMKK1, MK-28 1 µM, ATP 1 µM
[17] = target: panel of 391 kinases (Homo sapiens, UniProt Q8NE63); details: HIPK4, MK-28 1 µM, ATP 1 µM
[18] = target: panel of 391 kinases (Homo sapiens, UniProt Q96SB4); details: SRPK1, MK-28 1 µM, ATP 1 µM
[19] = target: panel of 391 kinases (Homo sapiens, UniProt Q9H792); details: PEAK1, MK-28 1 µM, ATP 1 µM
[20] = target: panel of 391 kinases (Homo sapiens, UniProt Q9NRM7); details: LATS2, MK-28 1 µM, ATP 1 µM
[21] = target: panel of 391 kinases (Homo sapiens, UniProt Q9NY57); details: STK32B/YANK2, MK-28 1 µM, ATP 1 µM
[22] = target: panel of 391 kinases (Homo sapiens, UniProt Q9UBS0); details: p70S6Kb/RPS6KB2, MK-28 1 µM, ATP 1 µM
[23] = target: panel of 391 kinases (Homo sapiens, UniProt Q9UL54); details: TAOK2/TAO1, MK-28 1 µM, ATP 1 µM
[24] = target: panel of 391 kinases (Homo sapiens, UniProt Q9Y2U5); details: MEKK2, MK-28 1 µM, ATP 1 µM
[25] = target: panel of 391 kinases (Homo sapiens, UniProt Q9Y4K4); details: KHS/MAP4K5, MK-28 1 µM, ATP 1 µM
[26] = target: panel of 391 kinases (Homo sapiens, UniProt Q9Y572); details: RIPK3, MK-28 1 µM, ATP 1 µM
[27] = read-out: % Enzyme Activity (relative to DMSO controls)

For `CN(/N=C\c1ccc(O)c(O)c1)c1nc(-c2ccccc2)cc(-c2ccccc2)n1` [MK-28], the “% Enzyme Activity (relative to DMSO controls)” value [1] was 99.62%, the remaining activity at 1 µM [1, 27] was 100% and the “% Enzyme Activity (relative to DMSO controls)” value [2] was 91.77%. For the same compound, the remaining activity at 1 µM [2, 27] was 93.8%, the “% Enzyme Activity (relative to DMSO controls)” value [3] was 97.64% and the remaining activity at 1 µM [3, 27] was 100%. The “% Enzyme Activity (relative to DMSO controls)” value [4] was 94.94%, the remaining activity at 1 µM [4, 27] was 98.9% and the “% Enzyme Activity (relative to DMSO controls)” value [5] was 89.76%. For the same compound, the remaining activity at 1 µM [5, 27] was 92.7%, the “% Enzyme Activity (relative to DMSO controls)” value [6] was 100.49% and the remaining activity at 1 µM [6, 27] was 101%. The “% Enzyme Activity (relative to DMSO controls)” value [7] was 95.37%, the remaining activity at 1 µM [7, 27] was 97.8% and the “% Enzyme Activity (relative to DMSO controls)” value [8] was 95.85%. For the same compound, the remaining activity at 1 µM [8, 27] was 95.9%, the “% Enzyme Activity (relative to DMSO controls)” value ([9]; kinase AMPK(A2/B1/G1)) was 91.41% and the remaining activity at 1 µM ([9]; kinase AMPK(A2/B1/G1)) was 93%. The “% Enzyme Activity (relative to DMSO controls)” value ([9]; kinase AMPK(A2/B2/G1)) was 106.33%, the remaining activity at 1 µM ([9]; kinase AMPK(A2/B2/G1)) was 108% and the “% Enzyme Activity (relative to DMSO controls)” value ([9]; kinase AMPK(A2/B2/G2)) was 103.36%. For the same compound, the remaining activity at 1 µM ([9]; kinase AMPK(A2/B2/G2)) was 104%, the “% Enzyme Activity (relative to DMSO controls)” value ([9]; kinase AMPK(A2/B2/G3)) was 96.60% and the remaining activity at 1 µM ([9]; kinase AMPK(A2/B2/G3)) was 98.9%. For the same compound, the “% Enzyme Activity (relative to DMSO controls)” value [10] was 102.33%, the remaining activity at 1 µM [10, 27] was 108% and the “% Enzyme Activity (relative to DMSO controls)” value [11] was 100.73%. For the same compound, the remaining activity at 1 µM [11, 27] was 103%, the “% Enzyme Activity (relative to DMSO controls)” value [12] was 93.40% and the remaining activity at 1 µM [12, 27] was 98%. For the same compound, the “% Enzyme Activity (relative to DMSO controls)” value [13] was 99.67%, the remaining activity at 1 µM [13, 27] was 101% and the “% Enzyme Activity (relative to DMSO controls)” value [14] was 104.33%. For the same compound, the remaining activity at 1 µM [14, 27] was 106%, the “% Enzyme Activity (relative to DMSO controls)” value [15] was 79.32% and the remaining activity at 1 µM [15, 27] was 81.8%. For the same compound, the “% Enzyme Activity (relative to DMSO controls)” value [16] was 101.88%, the remaining activity at 1 µM [16, 27] was 102% and the “% Enzyme Activity (relative to DMSO controls)” value [17] was 97.91%. The remaining activity at 1 µM [17, 27] was 98.4%, the “% Enzyme Activity (relative to DMSO controls)” value [18] was 103.25% and the remaining activity at 1 µM [18, 27] was 104%. For the same compound, the “% Enzyme Activity (relative to DMSO controls)” value [19] was 87.56%, the remaining activity at 1 µM [19, 27] was 88.6% and the “% Enzyme Activity (relative to DMSO controls)” value [20] was 84.83%. For the same compound, the remaining activity at 1 µM [20, 27] was 88.2%, the “% Enzyme Activity (relative to DMSO controls)” value [21] was 100.71% and the remaining activity at 1 µM [21, 27] was 101%. For the same compound, the “% Enzyme Activity (relative to DMSO controls)” value [22] was 91.85%, the remaining activity at 1 µM [22, 27] was 93.6% and the “% Enzyme Activity (relative to DMSO controls)” value [23] was 107.98%. The remaining activity at 1 µM [23, 27] was 111%, the “% Enzyme Activity (relative to DMSO controls)” value [24] was 91.93% and the remaining activity at 1 µM [24, 27] was 94%. The “% Enzyme Activity (relative to DMSO controls)” value [25] was 84.30%, the remaining activity at 1 µM [25, 27] was 86.9% and the “% Enzyme Activity (relative to DMSO controls)” value [26] was 100.16%. It also gave a remaining activity at 1 µM [26, 27] of 101%.
